Experimental data as given in patent EP0329902A1, “Use of quinolizinone and quinolizine derivatives in the manufacture of medicaments for the treatment of psychosis” (MERRELL DOW PHARMACEUTICALS INC., priority 1988, dated 1989).
Structures can show the parent of a compound that is named as a salt.

System: Von Bezold-Jarisch Reflex induced by 5-HT
Assay: Von Bezold-Jarisch Reflex induced by 5-HT injected intravenously
Assay type: in vivo
Details: rat
From the text: The activity of these compounds agianst 5-HT can be assessed in vivo by measurement of the effect of the compound on the Von Bezold-Jarisch Reflex induced by 5-HT injected intravenously into the rat (see Paintal A.S., Physiol. Rev. 53, 159-227, 1973; J.R. Fozard, Naunyn-Schmiedeberg's Arch. Pharmacol., 326, 1984, 36-44). The transient cardiac slowing arises from an increased afferent vagus activity arising from stimulation by 5-HT of sensory afferent fibres in and around the heart.

[1] = doses of 0.01-0.1 mg/kg given intravenously
[2] = doses of 0.25-1 mg/kg given orally

Row | SMILES | suppression of the Von Bezold-Jarisch Reflex response [1] | suppression of the Von Bezold-Jarisch Reflex response [2]
1 | Cc1cc(C)cc(C(=O)OC2CC3CC4CC(C2)N3CC4=O)c1 (stereo not drawn) [endo-8-(3,5-dimethylbenzoyloxy)hexahydro-2,6-methano-2H-quinolizin-3(4H)-one] | suppressed the response dose-dependently | suppressed the response dose-dependently
2 | O=C(OC1CC2CC3CC(C1)N2CC3=O)c1c[nH]c2ccccc12 (stereo not drawn) [endo-hexahydro-8-(3-indolylcarbonyloxy)-2,6-methano-2H-quinolizin-3(4H)one hydrochloride] | suppressed the response dose-dependently | suppressed the response dose-dependently
